The record followed here is patent US20250115669A1, “FGFR1/KLB Targeting Agonistic Antigen-Binding Proteins and Conjugates Thereof with GLP-1R Agonistic Peptides” (SANOFI, priority 2020, published 2025).

Bridge positions count the residues as written; N and C are the ends. Ends that are not written are not given here. Peptide text beside a SMILES is read from it.

Format in all cases: cell-based
One test has as its target T1, human GLP-1 receptor (Homo sapiens, UniProt P43220).
T1 construct: expressed in transfected cells; host or cells: PSC-HEK-293
Nature of the test: HTRF cAMP assay in HEK-293 cells expressing human GLP-1 receptor. Here is the method:
(§1) Each vial contained 1.8 ml cells. The vials were slowly frozen to −80° C. in isopropanol, and then transferred in liquid nitrogen for storage.
(§2) Cells were resuspended in assay buffer (cell buffer plus 2 mM IBMX) and adjusted to a cell density of 1 million cells/ml.
(§3) For measurement of cAMP generation, 5 μl cells (final 5000 cells/well) and 5 μl of test compound were added to a 384-well plate, followed by incubation for 30 min at room temperature.
(§4) The cAMP generated was determined using a kit from Cisbio Corp. based on HTRF (Homogenous Time Resolved Fluorescence). The cAMP assay was performed according to manufacturer's instructions (Cisbio).
For orientation: In TR-FRET formats the signal depends on donor and acceptor labels being close together.

Another test has as its target T2, human GIP receptor (Homo sapiens, UniProt P48546).
T2 construct: expressed in transfected cells; host or cells: PSC-HEK-293
T2 sequence (P48546 22-466): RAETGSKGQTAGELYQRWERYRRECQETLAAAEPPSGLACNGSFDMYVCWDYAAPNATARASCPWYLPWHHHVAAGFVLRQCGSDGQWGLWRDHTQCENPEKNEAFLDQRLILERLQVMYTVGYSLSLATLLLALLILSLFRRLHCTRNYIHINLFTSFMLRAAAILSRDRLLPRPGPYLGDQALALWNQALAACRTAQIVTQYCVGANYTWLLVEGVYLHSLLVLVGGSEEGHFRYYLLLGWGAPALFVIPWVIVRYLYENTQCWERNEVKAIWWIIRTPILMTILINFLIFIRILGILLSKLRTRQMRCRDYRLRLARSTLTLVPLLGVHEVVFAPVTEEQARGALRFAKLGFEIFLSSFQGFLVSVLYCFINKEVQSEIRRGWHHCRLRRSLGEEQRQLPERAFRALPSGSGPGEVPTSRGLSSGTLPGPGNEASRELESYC
The test is described as follows: HTRF cAMP assay in HEK-293 cells expressing human GIP receptor. The settings on record: HEK-293 cells; read-out: HTRF cAMP EC50 Human GIPR. The procedure: as §1, §2, §3, §4

Test [1] concerns the target T3, human glucagon (GCG) receptor (Homo sapiens, UniProt P47871).
T3 construct: expressed in transfected cells; host or cells: PSC-HEK-293
The test is described as follows: HTRF cAMP assay in HEK-293 cells expressing human glucagon receptor. Particulars: HEK-293 cells; read-out: HTRF cAMP EC50 Human GCGR. The procedure:
as §1, §2, §3, §4

T3 sequence (P47871 26-477): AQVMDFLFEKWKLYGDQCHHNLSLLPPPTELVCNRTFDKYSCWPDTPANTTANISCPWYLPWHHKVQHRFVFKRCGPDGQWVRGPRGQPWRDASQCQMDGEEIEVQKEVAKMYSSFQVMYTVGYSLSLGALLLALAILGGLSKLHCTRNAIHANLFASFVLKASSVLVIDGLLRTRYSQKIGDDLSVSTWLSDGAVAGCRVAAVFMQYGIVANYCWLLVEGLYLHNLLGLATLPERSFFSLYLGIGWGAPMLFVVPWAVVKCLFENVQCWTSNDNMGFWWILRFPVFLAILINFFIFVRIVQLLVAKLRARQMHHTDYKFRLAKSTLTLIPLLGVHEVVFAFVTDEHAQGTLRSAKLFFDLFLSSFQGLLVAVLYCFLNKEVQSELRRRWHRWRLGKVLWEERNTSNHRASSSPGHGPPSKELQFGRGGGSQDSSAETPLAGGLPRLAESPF
T1 sequence (P43220 24-463): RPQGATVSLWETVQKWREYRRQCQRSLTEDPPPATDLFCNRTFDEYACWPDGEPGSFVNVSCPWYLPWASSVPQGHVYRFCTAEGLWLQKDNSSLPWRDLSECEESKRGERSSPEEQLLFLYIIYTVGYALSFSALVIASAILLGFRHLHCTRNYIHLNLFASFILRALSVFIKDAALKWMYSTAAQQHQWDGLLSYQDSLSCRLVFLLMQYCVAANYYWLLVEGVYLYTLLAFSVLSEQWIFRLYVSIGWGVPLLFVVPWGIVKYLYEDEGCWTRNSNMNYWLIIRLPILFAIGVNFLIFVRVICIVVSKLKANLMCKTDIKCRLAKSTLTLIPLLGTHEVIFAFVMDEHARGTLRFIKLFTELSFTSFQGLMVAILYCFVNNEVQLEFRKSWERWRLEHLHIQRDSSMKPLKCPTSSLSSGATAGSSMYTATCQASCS

The molecule `CC[C@H](C)[C@H](NC(=O)[C@H](Cc1ccccc1)NC(=O)[C@H](CC(C)C)NC(=O)[C@H](CCC(N)=O)NC(=O)[C@@H](NC(=O)[C@H](C)NC(=O)[C@H](CCC(=O)O)NC(=O)[C@H](CCC(=O)O)NC(=O)[C@H](CCC(=O)O)NC(=O)[C@H](CC(C)C)NC(=O)[C@H](CCC(N)=O)NC(=O)[C@H](CCCCN)NC(=O)[C@H](CO)NC(=O)[C@H](CC(C)C)NC(=O)[C@H](CC(=O)O)NC(=O)[C@H](CO)NC(=O)[C@@H](NC(=O)[C@H](Cc1ccccc1)NC(=O)[C@@H](NC(=O)CNC(=O)[C@H](CCC(=O)O)NC(=O)CNC(=O)[C@@H](N)Cc1c[nH]cn1)[C@@H](C)O)[C@@H](C)O)C(C)C)C(=O)N[C@@H](CCC(=O)O)C(=O)N[C@@H](Cc1c[nH]c2ccccc12)C(=O)N[C@@H](CC(C)C)C(=O)N[C@@H](CC(C)C)C(=O)N[C@@H](C)C(=O)N[C@H](C(=O)NCC(=O)N1CCC[C@H]1C(=O)N[C@@H](CO)C(=O)N[C@@H](CO)C(=O)NCC(=O)N[C@@H](C)C(=O)N1CCC[C@H]1C(=O)N1CCC[C@H]1C(=O)N1CCC[C@H]1C(=O)N[C@@H](CO)C(N)=O)[C@@H](C)O` [Ab P010] (H-HGEGTFTSDLSKQLEEEAVQLFIEWLLATGPSSGAPPPS-NH2) had a half-maximal effective concentration (EC50) on human GLP-1 receptor of 0.0035 nM. Still for that read-out and setting: the result for `CC[C@H](C)[C@H](NC(=O)[C@H](CO)NC(=O)[C@H](CC(C)C)NC(=O)[C@H](CC(=O)O)NC(=O)[C@H](CO)NC(=O)[C@@H](NC(=O)[C@H](Cc1ccccc1)NC(=O)[C@@H](NC(=O)CNC(=O)[C@H](CCC(=O)O)NC(=O)CNC(=O)[C@H](Cc1c[nH]cn1)NC(=O)CN)[C@@H](C)O)[C@@H](C)O)C(=O)N[C@@H](CCC(N)=O)C(=O)N[C@@H](CC(C)C)C(=O)N[C@@H](CCC(=O)O)C(=O)N[C@@H](CCC(=O)O)C(=O)N[C@@H](CCC(=O)O)C(=O)N[C@@H](C)C(=O)N[C@H](C(=O)N[C@@H](CCCNC(=N)N)C(=O)N[C@@H](CC(C)C)C(=O)N[C@@H](Cc1ccccc1)C(=O)N[C@H](C(=O)N[C@@H](CCC(=O)O)C(=O)N[C@@H](Cc1c[nH]c2ccccc12)C(=O)N[C@@H](CC(C)C)C(=O)N[C@@H](CC(C)C)C(=O)N[C@@H](C)C(=O)N[C@H](C(=O)NCC(=O)N1CCC[C@H]1C(=O)N[C@@H](CO)C(=O)N[C@@H](CO)C(=O)NCC(=O)N[C@@H](C)C(=O)N1CCC[C@H]1C(=O)N1CCC[C@H]1C(=O)N1CCC[C@H]1C(=O)N[C@@H](CO)C(N)=O)[C@@H](C)O)[C@@H](C)CC)C(C)C` [Ab P020] reads 0.206 nM; that for `CC[C@H](C)[C@H](NC(=O)[C@H](CO)NC(=O)[C@H](CC(C)C)NC(=O)[C@H](CC(=O)O)NC(=O)[C@H](CO)NC(=O)[C@@H](NC(=O)[C@H](Cc1ccccc1)NC(=O)[C@@H](NC(=O)CNC(=O)[C@H](CCC(=O)O)NC(=O)CNC(=O)[C@@H](N)Cc1c[nH]cn1)[C@@H](C)O)[C@@H](C)O)C(=O)N[C@@H](CCC(N)=O)C(=O)N[C@@H](CC(C)C)C(=O)N[C@@H](CC(=O)O)C(=O)N[C@@H](CCC(=O)O)C(=O)N[C@@H](CCC(=O)O)C(=O)N[C@@H](C)C(=O)N[C@H](C(=O)N[C@@H](CCCNC(=N)N)C(=O)N[C@@H](CC(C)C)C(=O)N[C@@H](Cc1ccccc1)C(=O)N[C@H](C(=O)N[C@@H](CCC(=O)O)C(=O)N[C@@H](Cc1c[nH]c2ccccc12)C(=O)N[C@@H](CC(C)C)C(=O)N[C@@H](CCC(=O)O)C(=O)N[C@@H](C)C(=O)N[C@H](C(=O)NCC(=O)N1CCC[C@H]1C(=O)N[C@H](C(=O)N[C@@H](CO)C(=O)NCC(=O)N[C@@H](C)C(=O)N1CCC[C@H]1C(=O)N1CCC[C@H]1C(=O)N1CCC[C@H]1C(=O)N[C@@H](CO)C(N)=O)C(C)C)[C@@H](C)O)[C@@H](C)CC)C(C)C` [Ab P006] (H-HGEGTFTSDLSIQLDEEAVRLFIEWLEATGPVSGAPPPS-NH2), 0.0147 nM. Turning to `CC[C@H](C)[C@H](NC(=O)[C@H](Cc1ccccc1)NC(=O)[C@H](CCC(=O)O)NC(=O)[C@H](Cc1c[nH]cn1)NC(=O)[C@H](CCC(N)=O)NC(=O)[C@H](C)NC(=O)[C@H](CCCNC(=N)N)NC(=O)[C@H](CCCCN)NC(=O)[C@H](CCC(=O)O)NC(=O)[C@H](CC(C)C)NC(=O)[C@H](CC(C)C)NC(=O)[C@H](CCC(=O)O)NC(=O)[C@H](CO)NC(=O)[C@H](CC(C)C)NC(=O)[C@H](CC(=O)O)NC(=O)[C@H](CO)NC(=O)[C@@H](NC(=O)[C@H](Cc1ccccc1)NC(=O)[C@@H](NC(=O)CNC(=O)[C@H](CCC(=O)O)NC(=O)CNC(=O)[C@@H](N)Cc1c[nH]cn1)[C@@H](C)O)[C@@H](C)O)C(=O)N[C@@H](CCC(=O)O)C(=O)N[C@@H](Cc1c[nH]c2ccccc12)C(=O)N[C@@H](CC(C)C)C(=O)N[C@@H](CCCCN)C(=O)N[C@@H](C)C(=O)NCC(=O)NCC(=O)N1CCC[C@H]1C(=O)N[C@@H](CO)C(=O)N[C@@H](CO)C(=O)NCC(=O)N[C@@H](CCCCN)C(=O)N1CCC[C@H]1C(=O)N1CCC[C@H]1C(=O)N1CCC[C@H]1C(=O)N[C@@H](CCCCN)C(N)=O` [Ab P032] (H-HGEGTFTSDLSELLEKRAQHEFIEWLKAGGPSSGKPPPK-NH2; N-terminus assumed), the EC50 was 2.37 nM on human GIP receptor and greater than 10 nM in test [1].

With `CC[C@H](C)[C@H](NC(=O)[C@H](Cc1ccccc1)NC(=O)[C@H](CCC(=O)O)NC(=O)[C@H](Cc1c[nH]cn1)NC(=O)[C@@H](NC(=O)[C@H](C)NC(=O)[C@H](CCCNC(=N)N)NC(=O)[C@H](CCCCN)NC(=O)[C@H](CCC(=O)O)NC(=O)[C@H](CC(C)C)NC(=O)[C@H](CC(C)C)NC(=O)[C@H](CCCCN)NC(=O)[C@H](CO)NC(=O)[C@H](CC(C)C)NC(=O)[C@H](CC(=O)O)NC(=O)[C@H](CO)NC(=O)[C@@H](NC(=O)[C@H](Cc1ccccc1)NC(=O)[C@@H](NC(=O)CNC(=O)[C@H](CCC(=O)O)NC(=O)CNC(=O)[C@@H](N)Cc1c[nH]cn1)[C@@H](C)O)[C@@H](C)O)C(C)C)C(=O)N[C@@H](CCC(=O)O)C(=O)N[C@@H](Cc1c[nH]c2ccccc12)C(=O)N[C@@H](CC(C)C)C(=O)N[C@@H](CCCCN)C(=O)N[C@@H](C)C(=O)NCC(=O)NCC(=O)N1CCC[C@H]1C(=O)N[C@@H](CO)C(=O)N[C@@H](CO)C(=O)NCC(=O)N[C@@H](CCCCN)C(=O)N1CCC[C@H]1C(=O)N1CCC[C@H]1C(=O)N1CCC[C@H]1C(=O)N[C@@H](CCCCN)C(N)=O` [Ab P029] (H-HGEGTFTSDLSKLLEKRAVHEFIEWLKAGGPSSGKPPPK-NH2; N-terminus assumed), the values for the half-maximal effective concentration (EC50) (at human GIP receptor; in test [1]) were 1.37 nM and greater than 10 nM, respectively.

As to `CC[C@H](C)[C@H](NC(=O)[C@H](CC(C)C)NC(=O)[C@H](Cc1c[nH]c2ccccc12)NC(=O)[C@H](CCC(=O)O)NC(=O)[C@@H](NC(=O)[C@H](Cc1ccccc1)NC(=O)[C@H](CCC(=O)O)NC(=O)[C@H](Cc1c[nH]cn1)NC(=O)[C@@H](NC(=O)[C@H](C)NC(=O)[C@H](CCCNC(=N)N)NC(=O)[C@H](CCCCN)NC(=O)[C@H](CCC(=O)O)NC(=O)[C@H](CC(C)C)NC(=O)[C@H](CC(C)C)NC(=O)[C@H](CCCCN)NC(=O)[C@H](CO)NC(=O)[C@H](CC(C)C)NC(=O)[C@H](CC(=O)O)NC(=O)[C@H](CO)NC(=O)[C@@H](NC(=O)[C@H](Cc1ccccc1)NC(=O)[C@@H](NC(=O)CNC(=O)[C@H](CCC(=O)O)NC(=O)CNC(=O)[C@@H](N)Cc1c[nH]cn1)[C@@H](C)O)[C@@H](C)O)C(C)C)[C@@H](C)CC)C(=O)N[C@@H](C)C(=O)NCC(=O)NCC(=O)N1CCC[C@H]1C(=O)N[C@@H](CO)C(=O)N[C@@H](CO)C(=O)NCC(=O)N[C@@H](CCCCN)C(=O)N1CCC[C@H]1C(=O)N1CCC[C@H]1C(=O)N1CCC[C@H]1C(=O)N[C@@H](CCCCN)C(N)=O` [Ab P027] (H-HGEGTFTSDLSKLLEKRAVHEFIEWLIAGGPSSGKPPPK-NH2; N-terminus assumed), the values for the EC50 (at human GIP receptor; in test [1]) were 0.225 nM and greater than 10 nM, respectively. Regarding `CC[C@H](C)[C@H](NC(=O)[C@H](CC(C)C)NC(=O)[C@H](Cc1c[nH]c2ccccc12)NC(=O)[C@H](CCC(=O)O)NC(=O)[C@@H](NC(=O)[C@H](Cc1ccccc1)NC(=O)[C@H](CCC(=O)O)NC(=O)[C@H](Cc1c[nH]cn1)NC(=O)[C@H](CCC(N)=O)NC(=O)[C@H](C)NC(=O)[C@H](CCCNC(=N)N)NC(=O)[C@H](CCCCN)NC(=O)[C@H](CCC(=O)O)NC(=O)[C@H](CC(C)C)NC(=O)[C@H](CC(C)C)NC(=O)[C@H](CCC(=O)O)NC(=O)[C@H](CO)NC(=O)[C@H](CC(C)C)NC(=O)[C@H](CC(=O)O)NC(=O)[C@H](CO)NC(=O)[C@@H](NC(=O)[C@H](Cc1ccccc1)NC(=O)[C@@H](NC(=O)CNC(=O)[C@H](CCC(=O)O)NC(=O)CNC(=O)[C@@H](N)Cc1c[nH]cn1)[C@@H](C)O)[C@@H](C)O)[C@@H](C)CC)C(=O)N[C@@H](C)C(=O)NCC(=O)NCC(=O)N1CCC[C@H]1C(=O)N[C@@H](CO)C(=O)N[C@@H](CO)C(=O)NCC(=O)N[C@@H](CCCCN)C(=O)N1CCC[C@H]1C(=O)N1CCC[C@H]1C(=O)N1CCC[C@H]1C(=O)N[C@@H](CCCCN)C(N)=O` [Ab P031] (H-HGEGTFTSDLSELLEKRAQHEFIEWLIAGGPSSGKPPPK-NH2; N-terminus assumed), the EC50 on human GIP receptor is 0.271 nM; in test [1], greater than 10 nM.

In the case of “HGEGTFTSDLSILCEKRAVHEFIEWLIAGGPSSGKPPPKPGC-NH2 (disulfide 14-42) [Ab P033]”, the EC50 at human GIP receptor is 0.024 nM; in test [1], greater than 10 nM.

The term EC50 denotes the concentration needed to bring the measured effect to its halfway point.
